Active and inactive are the calls of the source. The calls are words filed in the database; no cut-off is given here.
Legend:
[1] = test system: Neuroblastoma cell; test: Antiproliferative activity against human Neuroblastoma cell assessed as inhibition of cell growth incubated for 60 hrs by CCK-8 method; type: functional, cell-based
[2] = Antiproliferative activity against human Embryonic lung cell assessed as inhibition of cell growth incubated for 60 hrs by CCK-8 method; type: toxicity, cell-based

COc1ccc(C2CC(c3ccc(F)cc3)=NN2C(=O)c2cc3ccc(OCCC[Se]C#N)cc3oc2=O)cc1 (configuration not stated)
Activity [1]: Active
Activity [2]: Non-toxic

From ChEMBL document CHEMBL6103579, “Antiproliferative activity of selenium-enriched coumarin derivatives on the SK-N-SH neuroblastoma cell line: Mechanistic insights” (Eur J Med Chem, 2025)
